# According to ChEMBL document CHEMBL5108002, “Design, synthesis, and biological evaluation of novel 7-substituted 10,11-methylenedioxy-camptothecin derivatives against drug-resistant small-cell lung cancer in vitro and in vivo” (Eur J Med Chem, 2022):
# The source made the active and inactive calls. The calls are words filed in the database; no cut-off is given here.
# Tests used:
# SW-620 = experiment: Antiproliferative activity against human SW-620 cells assessed as inhibition of cell growth incubated for 72 hrs by SRB assay; format: functional, cell-based; conditions: SW-620, 72 h
# 2008 = experiment: Antiproliferative activity against human 2008 cells assessed as inhibition of cell growth incubated for 72 hrs by SRB assay; format: functional, cell-based; conditions: Homo sapiens, 2008, 72 h
# [1] = Resistance index, ratio of IC50 for antiproliferative activity against etoposide/cisplatin combination-resistant human NCI-H446 cells to IC50 for antiproliferative activity against human NCI-H446 cells; format: functional
# [2] = Resistance index, ratio of IC50 for antiproliferative activity against Irinotecan-resistant human NCI-H446 cells to IC50 for antiproliferative activity against human NCI-H446 cells; format: functional
# NCI-H446 [3] = experiment: Antiproliferative activity against Irinotecan-resistant human NCI-H446 cells assessed as inhibition of cell growth incubated for 72 hrs by SRB assay; format: functional, cell-based; conditions: NCI-H446, 72 h
# NCI-H446 [4] = experiment: Induction of apoptosis in human NCI-H446 cells assessed as early apoptotic cells at 10 nM incubated for 24 hrs by AnnexinV-FITC/PI staining based flow cytometry analysis (reference value: 2.43 %); format: functional
# H69AR [5] = experiment: Induction of apoptosis in human NCI-H69AR cells assessed as late apoptotic cells at 1 nM incubated for 24 hrs by AnnexinV-FITC/PI staining based flow cytometry analysis (reference value: 2.99 %); format: functional
# NCI-H446 [6] = experiment: Induction of apoptosis in human NCI-H446 cells assessed as late apoptotic cells at 1 nM incubated for 24 hrs by AnnexinV-FITC/PI staining based flow cytometry analysis (reference value: 1.55 %); format: functional
# H69AR [7] = experiment: Induction of apoptosis in human NCI-H69AR cells assessed as early apoptotic cells at 10 nM incubated for 24 hrs by AnnexinV-FITC/PI staining based flow cytometry analysis (reference value: 0.35 %); format: functional
# H69AR [8] = experiment: Induction of apoptosis in human NCI-H69AR cells assessed as dead cells at 100 nM incubated for 24 hrs by AnnexinV-FITC/PI staining based flow cytometry analysis (reference value: 1.92 %); format: functional
# H69AR [9] = experiment: Induction of apoptosis in human NCI-H69AR cells assessed as early apoptotic cells at 100 nM incubated for 24 hrs by AnnexinV-FITC/PI staining based flow cytometry analysis (reference value: 0.35 %); format: functional
# HepG2 = experiment: Antiproliferative activity against human HepG2 cells assessed as inhibition of cell growth incubated for 72 hrs by SRB assay; format: functional, cell-based; conditions: HepG2, 72 h
# H69AR [10] = experiment: Induction of apoptosis in human NCI-H69AR cells assessed as early apoptotic cells at 1 nM incubated for 24 hrs by AnnexinV-FITC/PI staining based flow cytometry analysis (reference value: 0.35 %); format: functional
# H69AR [11] = experiment: Induction of apoptosis in human NCI-H69AR cells assessed as dead cells at 10 nM incubated for 24 hrs by AnnexinV-FITC/PI staining based flow cytometry analysis (reference value: 1.92 %); format: functional
# NCI-H446 [12] = experiment: Induction of apoptosis in human NCI-H446 cells assessed as late apoptotic cells at 10 nM incubated for 24 hrs by AnnexinV-FITC/PI staining based flow cytometry analysis (reference value: 1.55 %); format: functional
# H69AR [13] = experiment: Antiproliferative activity against human NCI-H69AR cells assessed as inhibition of cell growth incubated for 72 hrs by SRB assay; format: functional, cell-based
# NCI-H446 [14] = experiment: Induction of apoptosis in human NCI-H446 cells assessed as increase in cleaved-caspase 9 protein expression at 0.1 to 100 nM measured after 24 hrs by Western blot analysis; format: functional, cell-based; conditions: dose 0.1-100 nM
# NCI-H446 [15] = experiment: Induction of apoptosis in human NCI-H446 cells assessed as dead cells at 1 nM incubated for 24 hrs by AnnexinV-FITC/PI staining based flow cytometry analysis (reference value: 0.33 %); format: functional
# NCI-H446 [16] = experiment: Induction of apoptosis in human NCI-H446 cells assessed as increase in cleaved-PARP protein expression at 0.1 to 100 nM measured after 24 hrs by Western blot analysis; format: functional, cell-based; conditions: dose 0.1-100 nM
# Bel-7402 = experiment: Antiproliferative activity against human Bel-7402 cells assessed as inhibition of cell growth incubated for 72 hrs by SRB assay; format: functional, cell-based; conditions: Bel-7402, 72 h
# NCI-H446 [17] = experiment: Induction of apoptosis in human NCI-H446 cells assessed as early apoptotic cells at 0.1 nM incubated for 24 hrs by AnnexinV-FITC/PI staining based flow cytometry analysis (reference value: 2.43 %); format: functional
# NCI-H446 [18] = experiment: Antiproliferative activity against etoposide/cisplatin combination-resistant human NCI-H446 cells assessed as inhibition of cell growth incubated for 72 hrs by SRB assay; format: functional, cell-based; conditions: NCI-H446, 72 h
# H69AR [19] = experiment: Induction of apoptosis in human NCI-H69AR cells assessed as late apoptotic cells at 10 nM incubated for 24 hrs by AnnexinV-FITC/PI staining based flow cytometry analysis (reference value: 2.99 %); format: functional
# NCI-H446 [20] = experiment: Induction of apoptosis in human NCI-H446 cells assessed as early apoptotic cells at 1 nM incubated for 24 hrs by AnnexinV-FITC/PI staining based flow cytometry analysis (reference value: 2.43 %); format: functional
# NCI-H446 [21] = experiment: Induction of apoptosis in human NCI-H446 cells assessed as increase in cleaved-caspase 3 protein expression at 0.1 to 100 nM measured after 24 hrs by Western blot analysis; format: functional, cell-based; conditions: dose 0.1-100 nM
# MCF7 = experiment: Antiproliferative activity against human MCF7 cells assessed as inhibition of cell growth incubated for 72 hrs by SRB assay; format: functional, cell-based; conditions: MCF7, 72 h
# U-87 MG = experiment: Antiproliferative activity against human U87 cells assessed as inhibition of cell growth incubated for 72 hrs by SRB assay; format: functional, cell-based, U-87MG ATCC
# NCI-H69 = experiment: Antiproliferative activity against human NCI-H69 cells assessed as inhibition of cell growth incubated for 72 hrs by SRB assay; format: functional, cell-based; conditions: NCI-H69, 72 h
# NCI-H446 [22] = experiment: Induction of apoptosis in human NCI-H446 cells assessed as dead cells at 10 nM incubated for 24 hrs by AnnexinV-FITC/PI staining based flow cytometry analysis (reference value: 0.33 %); format: functional
# NCI-H446 [23] = experiment: Induction of apoptosis in human NCI-H446 cells assessed as late apoptotic cells at 0.1 nM incubated for 24 hrs by AnnexinV-FITC/PI staining based flow cytometry analysis (reference value: 1.55 %); format: functional
# NCI-H446 [24] = experiment: Induction of apoptosis in human NCI-H446 cells assessed as dead cells at 0.1 nM incubated for 24 hrs by AnnexinV-FITC/PI staining based flow cytometry analysis (reference value: 0.33 %); format: functional
# H69AR [25] = experiment: Induction of apoptosis in human NCI-H69AR cells assessed as dead cells at 1 nM incubated for 24 hrs by AnnexinV-FITC/PI staining based flow cytometry analysis (reference value: 1.92 %); format: functional
# H69AR [26] = experiment: Induction of apoptosis in human NCI-H69AR cells assessed as late apoptotic cells at 100 nM incubated for 24 hrs by AnnexinV-FITC/PI staining based flow cytometry analysis (reference value: 2.99 %); format: functional
# NCI-H446 [27] = experiment: Antitumor activity against human NCI-H446 cells xenografted in BALB/c nude mouse assessed as tumor growth inhibition at 3 mg/kg, IG administered once a week for 28 days by electronic caliper method relative to control; format: functional; conditions: NCI-H446, po, 672 h, time 28 day, read-out: TGI
# SH-SY5Y = experiment: Antiproliferative activity against human SH-SY5Y cells assessed as inhibition of cell growth incubated for 72 hrs by SRB assay; format: functional, cell-based
# NCI-H446 [28] = experiment: Antitumor activity against Irinotecan-resistant human NCI-H446 cells xenografted in BALB/c nude mouse assessed as tumor weight at 100 mg/kg, IG administered once a week and measured 3 times a week for 35 days; format: functional; conditions: time 35 day
compound,measurement,setting,value
CC[C@@]1(O)C(=O)OCc2c1cc1n(c2=O)Cc2c-1nc1cc3c(cc1c2-c1cccs1)OCO3,IC50,SW-620,0.29 nM
same,IC50,2008,4.03 nM
CC[C@@]1(O)C(=O)OCc2c1cc1n(c2=O)Cc2c-1nc1cc3c(cc1c2-c1ccncc1)OCO3,IC50,SW-620,2.67 nM
same,IC50,2008,93.5 nM
CC[C@@]1(O)C(=O)OCc2c1cc1n(c2=O)Cc2c-1nc1cc3c(cc1c2-c1cccnc1)OCO3,IC50,SW-620,0.17 nM
same,IC50,2008,11.6 nM
COc1cccc2c1C(=O)c1c(O)c3c(c(O)c1C2=O)C[C@@](O)(C(=O)CO)C[C@@H]3O[C@H]1C[C@H](N)[C@H](O)[C@H](C)O1 [DOXORUBICIN],Ratio IC50,[1],46.56
same,Ratio IC50,[2],14.64
same,IC50,NCI-H446 [3],5.71 nM
CC[C@@]1(O)C(=O)OCc2c1cc1n(c2=O)Cc2c-1nc1cc3c(cc1c2-c1cnn(C)c1)OCO3,IC50,SW-620,0.84 nM
same,IC50,2008,22.4 nM
CC[C@@]1(O)C(=O)OCc2c1cc1n(c2=O)Cc2c-1nc1cc3c(cc1c2-c1ccc(CO)cc1)OCO3,IC50,SW-620,0.28 nM
same,IC50,2008,7.67 nM
CC[C@@]1(O)C(=O)OCc2c1cc1n(c2=O)Cc2cc3cc4c(cc3nc2-1)OCO4,Activity,NCI-H446 [4],14.27%
same,Activity,H69AR [5],5.73%
same,Activity,NCI-H446 [6],1.83%
same,Activity,H69AR [7],0.43%
same,Activity,H69AR [8],1.56%
same,Activity,H69AR [9],1.3%
same,IC50,HepG2,10.6 nM
same,Activity,H69AR [10],0.58%
same,Activity,H69AR [11],2.87%
same,Activity,NCI-H446 [12],2.82%
same,IC50,H69AR [13],6.29 nM
same,IC50,SW-620,0.93 nM
same,Activity,NCI-H446 [14],Active
same,Activity,NCI-H446 [15],0.97%
same,Activity,NCI-H446 [16],Active
same,IC50,Bel-7402,21.8 nM
same,Activity,NCI-H446 [17],3.93%
same,IC50,NCI-H446 [18],6.61 nM
same,Ratio IC50,[1],0.78
same,IC50,2008,37.3 nM
same,Activity,H69AR [19],7.33%
same,Activity,NCI-H446 [20],9.64%
same,Activity,NCI-H446 [21],Active
same,IC50,MCF7,63.3 nM
same,IC50,U-87 MG,109 nM
same,IC50,NCI-H69,15.8 nM
same,Activity,NCI-H446 [22],0.37%
same,Ratio IC50,[2],2.09
same,Activity,NCI-H446 [23],0.83%
same,Activity,NCI-H446 [24],0.34%
same,IC50,NCI-H446 [3],18.5 nM
same,Activity,H69AR [25],1.72%
same,Activity,H69AR [26],32.78%
same,inhibition in vivo at 3 mg/kg,NCI-H446 [27],27.7%
same,IC50,SH-SY5Y,24.2 nM
CC[C@@]1(O)C(=O)OCc2c1cc1n(c2=O)Cc2c-1nc1cc3c(cc1c2-c1ccco1)OCO3,IC50,SW-620,102 nM
same,IC50,2008,0.16 nM
CC[C@@]1(O)C(=O)OCc2c1cc1n(c2=O)Cc2c-1nc1cc3c(cc1c2-c1ccsc1)OCO3,IC50,SW-620,0.36 nM
same,IC50,2008,39.2 nM
CC[C@@]1(O)C(=O)OCc2c1cc1n(c2=O)Cc2cc3c(CN(C)C)c(O)ccc3nc2-1 [TOPOTECAN],IC50,SW-620,> 500 nM
same,IC50,2008,> 500 nM
CC[C@@]1(O)C(=O)OCc2c1cc1n(c2=O)Cc2c-1nc1cc3c(cc1c2-c1cc(C(F)(F)F)cc(C(F)(F)F)c1)OCO3,IC50,SW-620,1.44 nM
same,IC50,2008,49.7 nM
CCc1c2c(nc3ccc(OC(=O)N4CCC(N5CCCCC5)CC4)cc13)-c1cc3c(c(=O)n1C2)COC(=O)[C@]3(O)CC [IRINOTECAN],Activity,NCI-H446 [28],2.28 g
same,IC50,NCI-H446 [18],0.13 nM
same,Ratio IC50,[1],13
same,Ratio IC50,[2],15
same,IC50,NCI-H446 [3],0.15 nM
same,inhibition in vivo at 3 mg/kg,NCI-H446 [27],26.8%
COc1cc([C@@H]2c3cc4c(cc3[C@@H](O[C@@H]3O[C@@H]5CO[C@@H](C)O[C@H]5[C@H](O)[C@H]3O)[C@H]3COC(=O)[C@H]23)OCO4)cc(OC)c1O [ETOPOSIDE],Ratio IC50,[1],19.28
same,Ratio IC50,[2],11.48
same,IC50,NCI-H446 [3],192 nM
